In general, IC50 refers to the concentration that gives 50% inhibition. Read a low IC50 as greater potency.

One test has as its system SS cells. The test is described as follows: Antisickling activity under anoxia (100% N2). The following applies: 2 mM, 100% N2 gas, 30 min. The class given is cell-based, human. The source says: Therefore, another objective in the targeted design of VZHE-039 was to complement its O2-dependent antisickling activity—common to this class of aromatic aldehydes—with an improved O2-independent antisickling activity through proximity-enhanced auxiliary interactions with the αF-helix. Findings from the VZHE-039 crystallographic studies indicate that we achieved the structural objective of enhanced interactions between the methylhydroxy substituent and the αF-helix. We further asked whether these enhanced interactions would translate to an improvement in the O2-independent antisickling activity—as hypothesized. We therefore explored the potential O2-independent activity of VZHE-039, by testing its antisickling properties under complete deoxygenated/anoxic conditions (i.e., 100% N2). […] For internal control purposes, aliquots from samples used for testing for antisickling studies at 2.5% O2 (see above) were also used for testing the antisickling effect of these compounds under 100% N2 gas, therefore, helping elucidate the antisickling effects due to O2-dependent activity of the compounds. Since this experimental design utilized aliquots of the same samples under different gas conditions, it ensured that the assay was free of any potential errors associated with variability in hematocrit and accuracy in drug concentrations.
We conducted two studies to test the antisickling property of VZHE-039 under anoxia to establish the secondary mechanism of action. In the first study, we conducted antisickling studies as described above and also previously reported (2.5% O2)[33], using 2 mM concentrations of VZHE-039, and the controls vanillin, TD-7 and Voxelotor. After 1 h, aliquot samples were fixed with 2% glutaraldehyde without exposure to air. Then the incubation chamber was opened and exposed to air for 15 min to ensure complete re-oxygenation and reversal of the sickled cells to normal round cells. Reversal was confirmed by microscopy. The incubation chamber was then closed, and the assay was repeated under 100% nitrogen gas for 30 min, at which point aliquots were obtained and fixed. Aliquot samples were then subjected to microscopic morphological analysis of bright field images as previously described. Resulting sickled cells (percentages) were compared across samples, and between aliquots of the same samples that had been obtained either under 2.5% oxygen or 100% nitrogen.

For another test, the target named is T1, CYP2B6 (Homo sapiens, UniProt P20813).
T1 construct: 0.2–0.5 mg/mL pooled human liver microsomes; from tissue; host or cells: pooled human liver microsomes
T1 sequence (P20813 1-491): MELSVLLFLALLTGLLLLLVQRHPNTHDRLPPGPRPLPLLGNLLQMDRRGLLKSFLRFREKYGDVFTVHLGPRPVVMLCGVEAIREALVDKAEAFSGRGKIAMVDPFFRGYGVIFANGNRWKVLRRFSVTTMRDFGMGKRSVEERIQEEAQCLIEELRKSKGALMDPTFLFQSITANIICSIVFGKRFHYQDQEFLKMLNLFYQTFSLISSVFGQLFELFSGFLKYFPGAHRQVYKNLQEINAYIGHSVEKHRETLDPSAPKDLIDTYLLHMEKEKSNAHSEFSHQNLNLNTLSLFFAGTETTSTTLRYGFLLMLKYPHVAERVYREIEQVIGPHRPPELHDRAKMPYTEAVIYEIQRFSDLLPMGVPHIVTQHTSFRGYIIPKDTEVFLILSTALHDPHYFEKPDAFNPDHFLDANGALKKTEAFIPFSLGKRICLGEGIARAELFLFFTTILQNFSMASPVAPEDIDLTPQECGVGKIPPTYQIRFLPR
Description: In vitro CYP inhibition, pooled human liver microsomes. Format: in vitro ADME. The following applies: substrate Bupropion. As to the method:
(§1) Next, we tested VZHE-039 at concentrations of 0.1 to 100 µM, considered to be biologically relevant unbound plasma concentrations, for possible CYP inhibition using pooled human liver microsomes and isozyme-specific probe substrates (CYP1A2, CYP2C8, CYP2C9, CYP2C19, CYP2D6, CYP3A4, CYP2B6)[55].
(§2) VZHE-039 was studied for its inhibitory potential of seven major drug metabolizing human cytochrome P450 (CYP) enzymes (CYP1A2, CYP2C8, CYP2C9, CYP2C19, CYP2D6, CYP3A4, CYP2B6) using pooled human liver microsomes as published previously[26],[55]. The probe substrates include tacrine (CYP1A2), amodiaquine (CYP2C8), tolbutamide (CYP2C9), mephenytoin (CYP2C19), dextromethorphan (CYP2D6), midazolam (CYP3A4), testosterone (CYP3A4), and bupropion (CYP2B6). […] Assay conditions were optimized for each human cytochrome P450 substrate. The optimized reaction mixtures (200 μL) contained a final concentration of 0.2–0.5 mg/mL pooled human liver microsomes, 2 mM NADPH in 100 mM potassium phosphate, pH 7.4 buffer with 5 mM MgCl2, and VZHE-039 concentration of 0.1 to 100 µM. The assays were performed in duplicate in 96-well plates at 37 °C for 10–60 min. The reaction was terminated with addition of methanol, followed by incubation at 4 °C for 10 min and centrifuged at 4 °C for 10 min. Effect of VZHE-039 on formation of the respective probe substrate metabolites (velnacrine, N‐desethylamodiaquine, 4-hydroxytolbutamide, 4′-hydroxymephenytoin, dextrophan, 1′-hydroxymidazolam, and 6β-hydroxtestosterone and hydroxybupropion) were determined using LC–MS/MS.
(Liver microsomes are vesicles of endoplasmic reticulum, rich in cytochrome P450 enzymes.)

Another test deals with T2, CYP2C19 (Homo sapiens, UniProt P33261).
T2 construct: 0.2–0.5 mg/mL pooled human liver microsomes; from tissue; host or cells: pooled human liver microsomes
T2 sequence (P33261 whole entry): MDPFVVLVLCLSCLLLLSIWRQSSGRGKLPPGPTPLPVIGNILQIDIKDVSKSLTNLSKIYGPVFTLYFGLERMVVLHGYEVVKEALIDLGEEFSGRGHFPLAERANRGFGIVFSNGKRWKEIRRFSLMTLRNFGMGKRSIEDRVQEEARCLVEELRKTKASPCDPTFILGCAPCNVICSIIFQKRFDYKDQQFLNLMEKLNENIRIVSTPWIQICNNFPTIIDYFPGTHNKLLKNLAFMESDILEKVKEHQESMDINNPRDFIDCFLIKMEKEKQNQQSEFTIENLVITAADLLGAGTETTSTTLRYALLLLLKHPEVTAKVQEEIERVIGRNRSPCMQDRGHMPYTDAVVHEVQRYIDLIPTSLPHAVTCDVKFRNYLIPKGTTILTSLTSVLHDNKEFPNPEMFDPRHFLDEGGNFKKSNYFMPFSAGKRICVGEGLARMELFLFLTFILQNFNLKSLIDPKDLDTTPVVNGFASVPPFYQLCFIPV
The description is as above. Format: in vitro ADME. As to conditions: substrate S-Mephentoin. As for the experimental part: as §1, §2

A further test has as its target T3, CYP2C8 (Homo sapiens, UniProt P10632).
T3 construct: 0.2–0.5 mg/mL pooled human liver microsomes; from tissue; host or cells: pooled human liver microsomes
T3 sequence (P10632 1-490): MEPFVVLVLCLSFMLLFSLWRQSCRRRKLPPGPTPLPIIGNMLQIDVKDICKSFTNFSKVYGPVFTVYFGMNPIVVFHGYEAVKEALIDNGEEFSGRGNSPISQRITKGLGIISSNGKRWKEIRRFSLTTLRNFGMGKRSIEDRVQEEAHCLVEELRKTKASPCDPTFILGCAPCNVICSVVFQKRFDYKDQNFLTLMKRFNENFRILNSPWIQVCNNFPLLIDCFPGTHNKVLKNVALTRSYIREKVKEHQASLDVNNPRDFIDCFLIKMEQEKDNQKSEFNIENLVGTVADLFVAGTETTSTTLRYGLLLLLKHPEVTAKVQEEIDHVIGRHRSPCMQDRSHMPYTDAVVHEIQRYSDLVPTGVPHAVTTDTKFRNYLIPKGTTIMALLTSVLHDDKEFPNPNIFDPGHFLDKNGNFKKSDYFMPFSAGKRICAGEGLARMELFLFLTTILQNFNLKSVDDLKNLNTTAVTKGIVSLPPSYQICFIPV
The test is described as above. The following applies: substrate Amodiaquine. The class given is in vitro ADME. As to the method: as §1, §2

A further test has as its target T4, CYP2C9 (Homo sapiens, UniProt P11712).
T4 construct: 0.2–0.5 mg/mL pooled human liver microsomes; from tissue; host or cells: pooled human liver microsomes
Described as above. Format: in vitro ADME. The following applies: substrate Tolbutamide. As for the experimental part:
as §1, §2

The next test addresses T5, CYP2D6 (Homo sapiens, UniProt P10635).
T5 construct: 0.2–0.5 mg/mL pooled human liver microsomes; from tissue; host or cells: pooled human liver microsomes
Described as above. As to conditions: substrate Dextromethorphan. The class given is in vitro ADME. As to the method:
as §1, §2

The next test deals with T6, CYP3A4 (Homo sapiens, UniProt P08684).
T6 construct: 0.2–0.5 mg/mL pooled human liver microsomes; from tissue; host or cells: pooled human liver microsomes
T6 sequence (P08684 whole entry): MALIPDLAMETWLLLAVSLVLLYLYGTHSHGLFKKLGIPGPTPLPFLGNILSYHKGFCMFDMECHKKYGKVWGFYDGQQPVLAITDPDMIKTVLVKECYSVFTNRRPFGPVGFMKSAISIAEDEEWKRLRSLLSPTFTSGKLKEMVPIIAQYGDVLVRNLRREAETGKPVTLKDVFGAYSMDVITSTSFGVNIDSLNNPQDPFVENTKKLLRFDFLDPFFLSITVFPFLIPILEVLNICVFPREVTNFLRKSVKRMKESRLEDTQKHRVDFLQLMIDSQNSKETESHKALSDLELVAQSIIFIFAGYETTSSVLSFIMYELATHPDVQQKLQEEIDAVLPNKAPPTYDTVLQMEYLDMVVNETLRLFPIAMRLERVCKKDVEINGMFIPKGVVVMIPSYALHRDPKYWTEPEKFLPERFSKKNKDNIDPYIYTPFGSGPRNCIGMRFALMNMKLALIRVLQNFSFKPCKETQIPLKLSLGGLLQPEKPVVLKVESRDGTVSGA
The test is described as above. The class given is in vitro ADME. As to the method:
as §1, §2

Entries after “also recorded” stand apart in the source; their conditions may differ.

T4 sequence (P11712 whole entry): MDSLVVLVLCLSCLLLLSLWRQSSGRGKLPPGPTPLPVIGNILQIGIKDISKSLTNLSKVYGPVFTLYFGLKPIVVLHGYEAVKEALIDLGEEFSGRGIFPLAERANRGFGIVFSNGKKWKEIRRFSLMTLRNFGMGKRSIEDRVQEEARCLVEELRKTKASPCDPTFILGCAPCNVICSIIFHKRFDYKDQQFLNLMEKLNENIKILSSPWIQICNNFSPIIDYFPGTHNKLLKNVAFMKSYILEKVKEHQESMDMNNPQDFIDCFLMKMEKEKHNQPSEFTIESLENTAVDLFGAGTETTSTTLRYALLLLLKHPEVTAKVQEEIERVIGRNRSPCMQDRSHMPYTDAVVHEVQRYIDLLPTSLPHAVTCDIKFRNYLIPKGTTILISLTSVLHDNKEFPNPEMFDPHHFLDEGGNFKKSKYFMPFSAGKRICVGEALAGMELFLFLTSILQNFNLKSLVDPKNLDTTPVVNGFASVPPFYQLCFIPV
T5 sequence (P10635 whole entry): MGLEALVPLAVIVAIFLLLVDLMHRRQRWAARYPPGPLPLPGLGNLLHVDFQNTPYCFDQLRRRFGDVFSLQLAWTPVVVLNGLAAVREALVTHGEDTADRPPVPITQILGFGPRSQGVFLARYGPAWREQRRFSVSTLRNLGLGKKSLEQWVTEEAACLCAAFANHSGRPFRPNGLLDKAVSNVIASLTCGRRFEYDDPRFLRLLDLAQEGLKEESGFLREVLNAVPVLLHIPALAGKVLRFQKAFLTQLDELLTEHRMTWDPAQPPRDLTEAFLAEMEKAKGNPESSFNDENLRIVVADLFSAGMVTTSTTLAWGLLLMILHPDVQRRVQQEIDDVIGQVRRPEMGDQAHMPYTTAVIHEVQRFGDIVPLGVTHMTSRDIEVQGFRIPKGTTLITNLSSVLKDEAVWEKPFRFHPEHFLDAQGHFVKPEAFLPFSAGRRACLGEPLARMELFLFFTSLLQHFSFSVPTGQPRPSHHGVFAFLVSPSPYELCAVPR

As for `O=Cc1c(O)cccc1OCc1cccc(CO)n1` [VZHE-039, 2-((6-(Hydroxymethyl)pyridin-2-yl)methoxy)-6-hydroxybenzaldehyde], in the test with SS cells, the “Antisickling effect under anoxia (in words)” value is recorded as “inhibited sickling under complete anoxia; also recorded: identical antisickling effects for VZHE-039 under either hypoxia or anoxia”. The 50% inhibitory concentration (IC50) on CYP2B6 is 41.4 µM; on CYP2C19 it was greater than 100 µM; on CYP2C8 it was greater than 100 µM; against CYP2C9, greater than 100 µM; against CYP2D6, greater than 100 µM; against CYP3A4 (substrate Midazolam), greater than 100 µM. Moreover, the IC50 against CYP3A4 (substrate Testosterone) was 95 µM.

The values are drawn from PMC7679387, “VZHE-039, a novel antisickling agent that prevents erythrocyte sickling under both hypoxic and anoxic conditions” (Scientific Reports, 2020).
